One block for each compound: values may come before it. Active and inactive are the calls of the source. The calls are words filed in the database; no cut-off is given here.
Key:
HeLa [1] = experiment: Upregulation of NKG2D ligand expression in human HeLa cells after 48 hrs by immunofluorescence staining-based flow cytometric analysis; format: functional, cell-based
HeLa [2] = experiment: Upregulation of DNAM1 ligand expression in human HeLa cells after 48 hrs by immunofluorescence staining-based flow cytometric analysis; format: functional, cell-based
[3] = target: Protein smoothened (Mus musculus) (UniProt P56726); experiment: Antagonist activity at smo receptor in mouse NIH3T3 Shh-Light II cells assessed as inhibition of SAG-induced hedgehog pathway after 48 hrs by dual luciferase reporter gene assay; format: cell-based
[4] = Intrinsic clearance in human liver microsomes assessed per mg of protein preincubated for 10 mins followed by NADP/Glc6P/G6P-DH addition by LC-MS/MS analysis; format: ADME; conditions: read-out: CLH
[5] = Intrinsic clearance in mouse liver microsomes assessed per mg of protein preincubated for 10 mins followed by NADP/Glc6P/G6P-DH addition by LC-MS/MS analysis; format: ADME; conditions: read-out: CLH
NCI-H1975 = experiment: Cytotoxicity against human NCI-H1975 cells assessed as growth inhibition after 72 hrs by CellTiter-Fluor assay; format: functional, cell-based; conditions: NCI-H1975, 72 h
RD [6] = experiment: Cytotoxicity against human RD cells assessed as growth inhibition after 48 hrs by MTT assay; format: functional, cell-based
PC-3 [7] = experiment: Cell cycle arrest in human PC3 cells assessed as accumulation at G2/M phase at 500 to 2000 nM after 24 hrs by propidium iodide staining-based flow cytometric analysis; format: functional
RD [8] = experiment: Cell cycle arrest in human RD cells assessed as accumulation at G2/M phase at 500 to 2000 nM after 24 hrs by propidium iodide staining-based flow cytometric analysis; format: functional
HepG2 [9] = experiment: Cell cycle arrest in human HepG2 cells assessed as accumulation at G2/M phase at 500 to 2000 nM after 24 hrs by propidium iodide staining-based flow cytometric analysis; format: functional
PC-3 [10] = experiment: Induction of apoptosis in human PC3 cells after 48 hrs by propidium iodide/annexin V-FITC staining-based cytofluorometric analysis; format: functional, cell-based
HepG2 [11] = experiment: Induction of apoptosis in human HepG2 cells after 48 hrs by propidium iodide/annexin V-FITC staining-based cytofluorometric analysis; format: functional, cell-based
RD [12] = experiment: Induction of apoptosis in human RD cells at 500 nM after 48 hrs by propidium iodide/annexin V-FITC staining-based cytofluorometric analysis; format: functional, cell-based
OVCAR-8 = experiment: cells; conditions: Homo sapiens, OVCAR-8, 48 h
Description: Cytotoxicity against human OVCAR8 cells assessed as growth inhibition after 48 hrs by SRB assay

[13] = Cytotoxicity against human MESSA cells assessed as growth inhibition after 72 hrs by CellTiter-Glo assay; format: functional, cell-based; conditions: MES-SA
[14] = Cytotoxicity against human MESSA/DX5 cells assessed as growth inhibition after 72 hrs by CellTiter-Glo assay; format: functional, cell-based; conditions: MES-SA/Dx5, 72 h
HeLa [15] = experiment: Induction of apoptosis in human HeLa cells at 20 nM after 24 hrs by propidium iodide/annexin V-FITC staining-based cytofluorometric analysis; format: functional, cell-based
HeLa [16] = experiment: Cell cycle arrest in human HeLa cells assessed as accumulation at G2/M phase at 20 nM after 24 hrs by propidium iodide staining-based flow cytometric analysis; format: functional
HeLa [17] = experiment: Cell cycle arrest in human HeLa cells assessed as accumulation at sub-G1 phase at 20 nM after 24 hrs by propidium iodide staining-based flow cytometric analysis; format: functional
HeLa [18] = experiment: Inhibition of microtubule polymerization in human HeLa cells assessed as appearance of tubulin foci and/or small asters of short microtubule fragments at 20 nM after 24 hrs by immunofluorescence staining-based microscopic analysis; format: cell-based
cells = conditions: Homo sapiens, NCI/ADR-RES, 48 h
Description: Cytotoxicity against Pgp overexpressing human NCI-ADR-RES cells assessed as growth inhibition after 48 hrs by SRB assay

PC-3 [19] = experiment: cells; conditions: Homo sapiens, PC-3, 48 h
Description: Cytotoxicity against human PC3 cells assessed as growth inhibition after 48 hrs by MTT assay

Protein smoothened (Mus musculus), sequence (P56726 whole entry): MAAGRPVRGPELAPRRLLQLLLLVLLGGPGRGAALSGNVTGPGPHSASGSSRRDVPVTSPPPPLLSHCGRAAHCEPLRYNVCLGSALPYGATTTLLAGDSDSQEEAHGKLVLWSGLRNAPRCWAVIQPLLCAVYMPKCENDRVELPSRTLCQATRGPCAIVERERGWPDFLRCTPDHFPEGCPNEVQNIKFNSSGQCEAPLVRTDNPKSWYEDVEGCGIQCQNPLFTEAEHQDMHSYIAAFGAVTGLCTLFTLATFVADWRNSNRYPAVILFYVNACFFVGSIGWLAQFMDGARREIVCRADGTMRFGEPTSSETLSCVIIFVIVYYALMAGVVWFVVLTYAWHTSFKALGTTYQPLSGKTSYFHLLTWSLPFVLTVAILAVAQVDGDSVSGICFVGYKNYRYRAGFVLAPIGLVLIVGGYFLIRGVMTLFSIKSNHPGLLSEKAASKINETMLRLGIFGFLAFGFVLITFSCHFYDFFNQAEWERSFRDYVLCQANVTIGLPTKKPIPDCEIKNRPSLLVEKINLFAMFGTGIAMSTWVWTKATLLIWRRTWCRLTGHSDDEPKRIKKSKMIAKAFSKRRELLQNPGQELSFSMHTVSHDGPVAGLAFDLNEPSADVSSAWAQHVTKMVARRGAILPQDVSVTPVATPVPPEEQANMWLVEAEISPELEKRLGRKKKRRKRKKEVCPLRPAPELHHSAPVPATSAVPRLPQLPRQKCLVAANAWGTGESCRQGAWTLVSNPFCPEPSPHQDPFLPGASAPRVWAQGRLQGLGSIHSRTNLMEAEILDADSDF

SMILES: COc1cc(C(=O)c2ccn(-c3cccc(N)c3)c2)cc(OC)c1OC
Activity (HeLa [1]): inactive
Activity (HeLa [2]): inactive

SMILES: COc1ccc2c(Sc3cc(OC)c(OC)c(OC)c3)c(-c3ccccc3)[nH]c2c1
inhibition [3]: Dose-dependent effect

SMILES: CC(=O)O[C@H]1C(=O)[C@@]2(C)[C@H]([C@H](OC(=O)c3ccccc3)[C@]3(O)C[C@H](OC(=O)[C@H](O)[C@@H](NC(=O)c4ccccc4)c4ccccc4)C(C)=C1C3(C)C)[C@]1(OC(C)=O)CO[C@@H]1C[C@@H]2O [PACLITAXEL]
IC50 (NCI-H1975): 2.5 nM
IC50 (RD [6]): > 10000 nM
Activity (PC-3 [7]): Active
Activity (RD [8]): Active
Activity (HepG2 [9]): Active
Activity (PC-3 [10]): Dose-dependent effect
Activity (HepG2 [11]): Dose-dependent effect
Activity (RD [12]): Active
IC50 (OVCAR-8): 3.7 nM

SMILES: CC[C@]1(O)C[C@@H]2CN(CCc3c([nH]c4ccccc34)[C@@](C(=O)OC)(c3cc4c(cc3OC)N(C)[C@H]3[C@@](O)(C(=O)OC)[C@H](OC(C)=O)[C@]5(CC)C=CCN6CC[C@]43[C@@H]65)C2)C1 [VINBLASTINE]
IC50 [13]: 3 nM
IC50 [14]: 144 nM
Activity (HeLa [15]): Active
Activity (HeLa [16]): >80%
Activity (HeLa [17]): Active
inhibition (HeLa [18]): Active
IC50 (cells): 200 nM
IC50 (PC-3 [19]): 766 nM

SMILES: CCC1=C[C@@H]2CN(C1)Cc1c([nH]c3ccccc13)[C@@](C(=O)OC)(c1cc3c(cc1OC)N(C)[C@H]1[C@@](O)(C(=O)OC)[C@H](OC(C)=O)[C@]4(CC)C=CCN5CC[C@]31[C@@H]54)C2 [VINORELBINE]
IC50 (cells): 5000 nM

More lines, now with the values ahead:

inhibition [3]: Dose-dependent effect
SMILES: COc1cc(Sc2c(-c3ccccc3)[nH]c3c(Cl)c(Cl)ccc23)cc(OC)c1OC

inhibition [3]: Dose-dependent effect
SMILES: COc1cc(Sc2c(-n3ccnc3)[nH]c3ccccc23)cc(OC)c1OC

microsomal CLint [4]: 209 µL/min/mg
microsomal CLint [5]: 711 µL/min/mg
SMILES: CCOc1ccc2ccc(=O)oc2c1 [ETHOXYCOUMARIN]

Reference: ChEMBL document CHEMBL3596144, “New Indole Tubulin Assembly Inhibitors Cause Stable Arrest of Mitotic Progression, Enhanced Stimulation of Natural Killer Cell Cytotoxic Activity, and Repression of Hedgehog-Dependent Cancer” (J Med Chem, 2015)
